How the values were obtained:
[1] = Pharmacokinetic test in mice (plasma and brain); format: in vivo, C57 mice; details: for F: i.g. 10 mg/kg versus i.v. 2.5 mg/kg; for Cmax / clearance / half-life / AUC(0-t) / Kp: mouse; for Kp: read-out: Brain/plasma ratio
Source text: 2.1 Experimental animals: male C57 mice, 20-25 g, divided into an intravenous group and an intragastric group.
2.2 Experimental design: on the day of the experiment, the C57 mice were randomly grouped according to their body weights. […] Table 2. Administration information
(§1) The whole blood was centrifuged to separate the plasma; the brain tissue was rinsed with cold physiological saline to remove the residual blood on the surface, drained out and then homogenized. Before analysis and detection, all samples were stored at -80°C, and the samples were quantitatively analysed by LC-MS/MS. Table 3. Pharmacokinetic parameters of test compounds in mice

[2] = target: T1, M4 receptor (Homo sapiens, UniProt P08173); experiment: PAM agonistic activity of compound on M4 receptor (FLIPR Calcium 6 assay in M4-CHO cells); format: cell-based; details: with acetylcholine (Ach), final concentration 3 nM
T1 construct: expressed in transfected cells; host or cells: CHO (M4-CHO cells)
T1 sequence (P08173 1-479): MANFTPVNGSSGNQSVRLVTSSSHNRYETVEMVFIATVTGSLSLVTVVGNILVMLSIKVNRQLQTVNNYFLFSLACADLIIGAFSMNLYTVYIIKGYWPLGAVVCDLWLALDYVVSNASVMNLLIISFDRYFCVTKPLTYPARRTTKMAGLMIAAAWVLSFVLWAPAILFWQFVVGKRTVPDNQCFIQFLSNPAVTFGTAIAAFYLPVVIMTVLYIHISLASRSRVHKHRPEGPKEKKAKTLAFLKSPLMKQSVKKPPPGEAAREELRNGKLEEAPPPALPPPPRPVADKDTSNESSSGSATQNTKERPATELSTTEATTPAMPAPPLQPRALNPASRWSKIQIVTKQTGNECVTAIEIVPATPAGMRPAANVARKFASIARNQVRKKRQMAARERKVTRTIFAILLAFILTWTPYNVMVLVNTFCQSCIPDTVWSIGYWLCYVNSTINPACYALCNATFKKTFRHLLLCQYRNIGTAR
Description: • 1). Cell plating: M4-CHO cells were digested, collected, and resuspended. After cell counting, the cell suspension was seeded into a 384-well cell plate at a density of: 1.2 × 10^4 cells/25 µL/well. The cell plate was then cultured in a 37°C, 5% CO2 incubator for about 16-20 h. • 2). Day 2: Assay Buffer was prepared according to the instructions of the FLIPR Calcium 6 Assay Kit. Component A (20×) was thawed to room temperature and diluted with the Assay Buffer to prepare a loading buffer (1×), which was stored at room temperature until use. • 3). The culture medium was removed from the cell plate. 40 µL of the loading buffer (1×) was quickly added to each well. The cell plate was then centrifuged and incubated at 37°C in the dark for 120 min. • 4). Working solutions of the positive control compound and the test compounds were prepared. An acetylcholine (Ach) agonist compound solution was prepared (final concentration: 3 nM). The PAM compound and the Ach agonist solution were mixed at a 1 : 1 ratio, and the mixture was transferred into a 384-well compound source plate at 20 µL per well. • 5). The cell plate, the compound source plate, and the pipette tips were placed into the corresponding positions within the FLIPR instrument. 10 µL of the diluted compound from step 4 was added into each experimental well using the FLIPR Tetra. Data was collected at the wavelength of 515 nm-575 nm. • 6). The signal values were plotted against the compound concentrations. Nonlinear regression analysis was performed using GraphPad Prism software for curve fitting and EC50 calculation.
The experimental results are shown in Table 1, where A represents EC50 < […]; B represents 100 nM ≤ EC50 < 500 nM, and C represents 500 nM ≤ EC50. Table 1. Agonistic activity of compounds on M4 receptor

[3] = Pharmacokinetic test in rats (plasma and brain); format: in vivo, SD rats; details: for F: i.g. 10 mg/kg versus i.v. 2.5 mg/kg; for Cmax / clearance / half-life / AUC(0-t): plasma
Source text: 3.1 Experimental animals: male SD rats, about 220 g, 6-8 weeks old, divided into an intravenous group and an intragastric group.
3.2 Experimental design: on the day of the experiment, the SD rats were randomly grouped according to their body weights. […] Table 5. Administration information
as §1, with “6.” for “3.”, “compound” for “compounds”, “plasma of rats” for “mice”

[4] = Pharmacokinetic test in monkeys; format: in vivo; details: male cynomolgus monkeys
Description: Experimental animals: male cynomolgus monkeys, 3-5 kg, 3-6 years old, divided into an intravenous group and an intragastric group.
Experimental method: on the day of the experiment, the monkeys were randomly grouped according to their body weights. […] Table 9. Administration information
Before and after the administration, 1.0 mL of blood was taken from the limb veins and placed in an EDTAK2 centrifuge tube. Centrifugation was carried out at 5000 rpm at 4°C for 10 min, and the plasma was collected. […] Before analysis and detection, all samples were stored at -80°C, and the samples were quantitatively analysed by LC-MS/MS. Table 10. Pharmacokinetic parameters of test compound in plasma of monkeys

[5] = male C57 mice, plasma, i.v. 2.5 mg/kg and i.g. 10 mg/kg groups, route of the parameter not given
[6] = male C57 mice, plasma, i.v. 2.5 mg/kg and i.g. 10 mg/kg groups, route of the parameter not given, read-out: AUC0-t
[7] = rat, in vivo, male SD rats, i.v. 2.5 mg/kg and i.g. 10 mg/kg groups, route of the parameter not given
[8] = cynomolgus monkey, plasma, i.v. 1 mg/kg and i.g. 5 mg/kg groups, route of the parameter not given
[9] = rat, male SD rats, i.v. 2.5 mg/kg and i.g. 10 mg/kg groups, route of the parameter not given
[10] = in vivo, male C57 mice, plasma, i.v. 2.5 mg/kg and i.g. 10 mg/kg groups, route of the parameter not given

Compound: Cc1cc(C)c2c(n1)CN(C(=O)CC1CN(c3ccnc(C(F)(F)F)c3)C1)C2 [DZ-01, reference compound]
- F ([1]; male C57 mice): >98%
- Cmax [1, 5]: 3800 ng/mL
- clearance [1, 5]: 75.1 mL/min/kg
- half-life [1, 5]: 1.23 h
- AUC(0-t) [1, 6]: 3610 ng·h/mL

Compound: Cc1cc(C)c2c(n1)CN(C(=O)CC1CN(c3ccnc(-n4ccc(C)n4)c3)C1)C2 [Compound 29]
- EC50 [2]: < 100 nM
- F ([3]; male SD rats): >98%
- Cmax [3, 7]: 7960 ng/mL
- clearance [3, 7]: 18.9 mL/min/kg
- half-life [3, 7]: 0.646 h
- AUC(0-t) ([3]; rat, in vivo, male SD rats, i.v. 2.5 mg/kg and i.g. 10 mg/kg groups, route of the parameter not given, read-out: AUC0-t): 12200 ng·h/mL

Compound: Cc1cc(=O)n(C(F)F)c2c1CN(C(=O)CC1CN(c3ccnc(OC4CC(F)(F)C4)c3)C1)C2 [Compound 128]
- AUC(0-t) [4, 8]: 5940 ng·h/mL
- Cmax [4, 8]: 495 ng/mL
- clearance [4, 8]: 10.1 mL/min/kg
- half-life [4, 8]: 7.19 h
- F ([4]; i.g. 5 mg/kg versus i.v. 1 mg/kg): 71.4%
- EC50 [2]: < 100 nM
- F ([1]; male C57 mice): >98%
- Brain tissue AUC0-t ([1]; mice, i.g. (10 mg/kg)): 5618 ng·h/g
- Kp ([1]; brain/plasma, po, mice, i.g. (10 mg/kg)): 0.581
- AUC(0-t) ([1]; plasma, po, mice, i.g. (10 mg/kg), read-out: Plasma AUC0-t): 9680 ng·h/mL
- Cmax [1, 5]: 6030 ng/mL
- clearance [1, 5]: 6.91 mL/min/kg
- half-life [1, 5]: 2.25 h
- AUC(0-t) [1, 6]: 25700 ng·h/mL
- F ([3]; male SD rats): >98%
- Kp ([3]; rat, brain/plasma, po, rats, i.g. (10 mg/kg), read-out: Brain/plasma ratio): 0.497
- AUC(0-t) ([3]; rat, po, rats, i.g. (10 mg/kg), read-out: Plasma AUC0-t): 46100 ng·h/mL
- Cmax [3, 9]: 5140 ng/mL
- clearance [3, 9]: 6.33 mL/min/kg
- half-life [3, 9]: 4.68 h
- AUC(0-t) ([3]; rat, male SD rats, i.v. 2.5 mg/kg and i.g. 10 mg/kg groups, route of the parameter not given, read-out: AUC0-t): 34000 ng·h/mL
- Brain tissue AUC0-t ([3]; rats, i.g. (10 mg/kg)): 22917 ng·h/g

Compound: Cc1cc(-c2cnn(C)c2)nc2c1CN(C(=O)CC1CN(c3ccnc(OC4CC(F)(F)C4)c3)C1)C2 [Compound 104]
- EC50 [2]: < 100 nM
- F ([1]; male C57 mice): >98%
- Brain tissue AUC0-t ([1]; mice, i.g. (10 mg/kg)): 4776 ng·h/g
- Kp ([1]; in vivo, po, mice, i.g. (10 mg/kg)): 0.528
- AUC(0-t) ([1]; in vivo, po, mice, i.g. (10 mg/kg), read-out: Plasma AUC0-t): 2520 ng·h/mL
- Cmax [1, 5]: 4540 ng/mL
- clearance [1, 5]: 11.1 mL/min/kg
- half-life [1, 5]: 2.2 h
- AUC(0-t) [1, 6]: 16900 ng·h/mL

Compound: Cc1nc(-c2cnn(C)c2)nc2c1CN(C(=O)CC1CN(c3ccnc(C(F)(F)F)c3)C1)C2 [Compound 122]
- EC50 [2]: < 100 nM
- F ([1]; male C57 mice): >98%
- Cmax [1, 10]: 6400 ng/mL
- clearance [1, 10]: 9.24 mL/min/kg
- half-life [1, 10]: 2.94 h
- AUC(0-t) ([1]; in vivo, male C57 mice, plasma, i.v. 2.5 mg/kg and i.g. 10 mg/kg groups, route of the parameter not given, read-out: AUC0-t): 26300 ng·h/mL

Compound: Cc1ncc(-c2nc(C)c3c(n2)CN(C(=O)CC2CN(c4ccnc(C(F)(F)F)c4)C2)C3)s1 [Compound 174]
- EC50 [2]: < 100 nM

Compound: Cc1cc(C)c2c(n1)CN(C(=O)CC1CN(c3ccnc(O[C@H]4CCOC4)c3)C1)C2 [Compound 52]
- EC50 [2]: < 100 nM

Compound: C=C1CC(Oc2cc(N3CC(CC(=O)N4Cc5nc(-c6cnn(C)c6)cc(C)c5C4)C3)ccn2)C1 [Compound 166]
- EC50 [2]: < 100 nM

Compound: Cc1cc(C)c2c(n1)CN(C(=O)CC1CN(c3ccnc(-c4ccnn4C)c3)C1)C2 [Compound 22]
- EC50 [2]: < 100 nM

Compound: Cc1cc(C)c2c(n1)CN(C(=O)CC1CN(c3ccnc(-n4cc(C)c(C)n4)c3)C1)C2 [Compound 55]
- EC50 [2]: < 100 nM

Compound: Cc1cc(C)c2c(n1)CN(C(=O)CC1CN(c3ccnc(C(=O)c4cnn(C)c4)c3)C1)C2 [Compound 120]
- EC50 [2]: < 100 nM

Compound: Cc1cc(-c2cnn(C)c2)nc2c1CN(C(=O)CC1CN(c3ccnc(C(F)(F)F)c3)C1)C2 [Compound 109]
- EC50 [2]: < 100 nM

Compound: Cc1c2c(n(C)c(=O)c1F)CN(C(=O)CC1CN(c3ccnc(OC4CCOC4)c3)C1)C2 (centres unmarked) [Compound 210]
- EC50 [2]: < 100 nM

Compound: Cc1ccn(-c2cc(N3CC(CC(=O)N4Cc5c(C)cc(=O)n(C)c5C4)C3)ccn2)n1 [Compound 99]
- EC50 [2]: < 100 nM

Compound: Cc1ncn(-c2cc(N3CC(CC(=O)N4Cc5nc(-c6ccnn6C)nc(C)c5C4)C3)ccn2)n1 [Compound 146]
- EC50 [2]: < 100 nM

Compound: Cc1cc(C)c2c(n1)CN(C(=O)CC1CN(c3ccnc(-n4cc(C(F)(F)F)nc4C)c3)C1)C2 [Compound 46]
- EC50 [2]: < 100 nM

Compound: Cc1cc(C#N)c(F)c2c1CN(C(=O)CC1CN(c3ccnc(OC4CC(F)(F)C4)c3)C1)C2 [Compound 103]
- EC50 [2]: < 100 nM

Compound: Cc1ncn(-c2cc(N3CC(CC(=O)N4Cc5nc(-c6cnn(C)c6)nc(C)c5C4)C3)ccn2)n1 [Compound 130]
- EC50 [2]: < 100 nM

Compound: Cc1ccn(-c2cc(N3CC(CC(=O)N4Cc5nc(C)cc(C)c5C4)C3)ccn2)c1 [Compound 50]
- EC50 [2]: < 100 nM

Compound: Cc1cc(C)c2c(n1)CN(C(=O)CC1CN(c3ccnc(-c4cc(C(F)(F)F)n(C)n4)c3)C1)C2 [Compound 14]
- EC50 [2]: < 100 nM

Compound: Cc1cc(C2CCOC2)nc2c1CN(C(=O)CC1CN(c3ccnc(C(F)(F)F)c3)C1)C2 (single isomer, unassigned) [Compound 153]
- EC50 [2]: < 100 nM

Compound: Cc1nc(-c2cnn(C)c2)nc2c1CN(C(=O)CC1CN(c3ccnc(OC4CC(F)(F)C4)c3)C1)C2 [Compound 143]
- EC50 [2]: < 100 nM

Compound: Cc1cc(C)c2c(n1)CN(C(=O)CC1CN(c3ccnc(-n4ccc(C(F)F)n4)c3)C1)C2 [Compound 134]
- EC50 [2]: < 100 nM

Compound: Cc1cc(=O)n(C)c2c1CN(C(=O)CC1CN(c3ccnc(O[C@@H]4CCOC4)c3)C1)C2 [Compound 118]
- EC50 [2]: < 100 nM

Compound: Cc1cnn(-c2cc(N3CC(CC(=O)N4Cc5nc(C)cc(C)c5C4)C3)ccn2)c1 [Compound 40]
- EC50 [2]: < 100 nM

Source: patent EP4733303A1, “MUSCARINIC M4 RECEPTOR AGONIST AND USE THEREOF” (Haisco Pharmaceutical Group Co., Ltd., priority 2023, dated 2024)
